Data from patent US9018213B2, “Alicyclic[c] benzopyrone derivatives and uses thereof” (Huazhong University of Science & Technology, priority 2011, dated 2015).

Tests used:
5HT2A receptor = 5HT2A receptor (Rattus norvegicus (Rat), UniProt P14842); experiment: 5HT2A receptor binding assay ([3H]-Ketanserin)
5HT1A receptor = 5HT1A receptor (Rattus norvegicus (Rat), UniProt P19327); experiment: 5HT1A receptor binding assay (3H-8-OH-DPAT)
Protocol: Preparation of 5HT1A Membrane
Incubation at 37° C. was conducted for 10 min, the weight of the tubes were adjusted using a balance after incubation. […] Centrifugation was conducted and repeated 3 times.
Materials for the Receptor Binding Assay

mice of Kunming breed = experiment: MK-801 induced high activity; format: in vivo
Protocol: Healthy mice of Kunming breed (with half male and half female, (20±2) g) were provided by Qinglongshan Animal Cultivation Center, Nanjing.
Ascorbic acid was provided by Sinopharm Chemical Reagent Co. Ltd.
Tween 80, with the concentration of 10%.
Subsequently, the spontaneous activities of the mice of each group in 90 min were measured.

D2 receptor = D2 receptor (Rattus norvegicus (Rat), UniProt P61169); experiment: D2 receptor inhibition binding assay (3H-Spiperone)
D2 receptor, sequence (P61169 whole entry): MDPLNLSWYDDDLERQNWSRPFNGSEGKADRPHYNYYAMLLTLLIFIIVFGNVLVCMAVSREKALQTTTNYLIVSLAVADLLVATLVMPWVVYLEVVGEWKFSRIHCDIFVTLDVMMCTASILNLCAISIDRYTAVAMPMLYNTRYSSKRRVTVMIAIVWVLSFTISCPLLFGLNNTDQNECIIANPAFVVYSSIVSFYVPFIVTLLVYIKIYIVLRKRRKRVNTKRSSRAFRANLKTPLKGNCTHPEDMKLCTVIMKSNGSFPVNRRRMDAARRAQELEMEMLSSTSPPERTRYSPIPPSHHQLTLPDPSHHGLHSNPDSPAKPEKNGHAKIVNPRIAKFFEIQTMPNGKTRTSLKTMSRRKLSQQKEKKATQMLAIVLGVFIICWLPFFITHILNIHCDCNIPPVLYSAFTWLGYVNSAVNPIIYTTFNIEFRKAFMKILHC
Protocol: Rats were sacrificed by cervical dislocation on ice. Cerebral cortex was rapidly taken, and 2 cerebral cortexes were combined into a centrifuge tube, to which 3 ml of buffer (0.05 M Tris-HCl buffer, containing NaCl 120 mM, KCl 5 mM, MgCl2 1 mM, CaCl2 1 mM) was added, homogenization was conducted for 3-4 s at level 4 for four times, and then 5 ml of buffer was then added. The weight of the homogenized tubes were adjusted using a balance, and centrifugation was conducted at 12000 r, 4° C. for 20 min. The supernatant was discarded, and 3 ml of B solution was added. Vortex mixer was used for blending, and then 5 ml of B solution was added. Centrifugation was conducted and repeated 3 times. After the centrifugations, the supernatant was discarded, and the pellets were stored at −80° C. for future use.
Beckman LS-6500 Multi-function Liquid Scintillation Counter was used.
(1) The prepared membrane was first applied with appropriate amount of homogenized liquid, and homogenizer was used for evenly dispersing. 15 tubes were mixed into a 100 ml container, and appropriate amount of homogenized liquid was added to give 50 ml of membrane suspension, which was reserved for future use.
(2) 100 μL of membrane preparation and 100 μL of buffer were added into each reaction tube.
(3) 100 μL of homogenized liquid was added into the total binding tube (TB), 100 μL of Butaclamol (final concentration 10^−5 M) was added into the non-specific binding tube (NB), and 100 μL of the test compound (final concentration 10^−5 M) was added into the specific binding tube (SB) for each compound.
(5) Each of the reaction tubes was incubated at 37° C. for 20 min. After the reaction was completed, the bound ligands were rapidly filtered under reduced pressure, and the ice-chilled assay buffer was used for adequate washing. The filter was taken out and put into a 3 ml scintillation vial, and 2 ml of toluene scintillation solution was added and blended.
(6) The scintillation vials were put into Liquid Scintillation Counter for counting. Inhibitory rate (I %)=(Total binding tube cpm−compound cpm)/(Total binding tube cpm−non-specific binding tube cpm)×100%
Each assay for the compounds was conducted in duplicate.

Catalepsy assay = settings: both, Kunming (KM), mouse, in vivo, po
Protocol: (§1) Healthy mice of Kunming breed (with half male and half female, (22±2) g) were provided by Qinglongshan Animal Cultivation Center, Nanjing.
(§2) The durations for the mice to maintain the posture with the two forepaws on the bars were recorded, and 30 s of spasticity without moving was considered as the positive response. In the case the forepaws of the mice were not put down persistently, the observation was terminated at 60 s. The numbers of animals with positive response in each of the compound dosage groups were counted.

KM mice [1] = experiment: Catalepsy assay; settings: mouse, in vivo
Protocol: as §1, §2

5HT2C receptor = 5HT2C receptor (Rattus norvegicus (Rat), UniProt P08909); experiment: 5HT2C receptor binding assay ([3H]-mesulergine)
5HT2C receptor, sequence (P08909 33-460): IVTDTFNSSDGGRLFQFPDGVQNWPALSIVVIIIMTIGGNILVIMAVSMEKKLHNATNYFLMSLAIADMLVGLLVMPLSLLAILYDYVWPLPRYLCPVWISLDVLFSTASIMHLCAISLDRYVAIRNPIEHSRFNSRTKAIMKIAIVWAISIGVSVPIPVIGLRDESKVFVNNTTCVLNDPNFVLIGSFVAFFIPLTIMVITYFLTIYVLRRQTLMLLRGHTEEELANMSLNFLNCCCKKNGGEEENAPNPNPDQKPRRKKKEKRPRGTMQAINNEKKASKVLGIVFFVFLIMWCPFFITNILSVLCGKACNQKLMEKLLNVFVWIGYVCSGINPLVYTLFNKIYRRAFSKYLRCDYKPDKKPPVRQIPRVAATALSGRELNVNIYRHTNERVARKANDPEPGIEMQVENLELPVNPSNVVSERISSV

D3 receptor = D3 receptor (Homo sapiens (Human), UniProt P35462); experiment: D3 receptor competitive binding assay ([3H]-Spiperone, HEK-293 cells)
D3 receptor, sequence (P35462 whole entry): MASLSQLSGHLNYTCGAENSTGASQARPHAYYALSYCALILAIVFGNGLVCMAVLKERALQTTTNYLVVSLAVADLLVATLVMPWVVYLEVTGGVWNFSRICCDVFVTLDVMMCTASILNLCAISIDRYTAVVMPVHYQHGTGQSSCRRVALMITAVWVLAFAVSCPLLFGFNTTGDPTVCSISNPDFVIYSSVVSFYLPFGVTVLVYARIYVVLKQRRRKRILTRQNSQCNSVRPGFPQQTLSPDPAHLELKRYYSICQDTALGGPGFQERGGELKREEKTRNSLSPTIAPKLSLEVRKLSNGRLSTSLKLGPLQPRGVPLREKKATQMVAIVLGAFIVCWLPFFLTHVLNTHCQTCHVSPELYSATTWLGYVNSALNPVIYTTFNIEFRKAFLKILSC
Protocol: After the cells were centrifuged at 1000 rpm for 5 min, the supernatant was discarded, and the cell pellet was collected and stored in a -20° C. fridge for reservation. It was re-suspended with Tris-Cl (pH 7.4) in the assay. […] Tris was divided into aliquots by […] Technology Inc. Procedures Competitive binding test for receptors: 20 μl of each of the test compounds and 20 μl of the radioactive ligand together with 160 μl of the receptor proteins were added into the reaction tubes, and the final concentrations of the test compound and the positive drug were all 10 μmol/L. After 50 min of incubation in 30° C. water bath, the tubes were immediately moved to ice bath to terminate the reactions. GF/C glass fiber filter papers were used for rapid sucking filtration on a Millipore cell sample collector, elution buffer (50 mM Tris-HCl, PH 7.4) was applied for 3 ml×3 times, and microwave was applied for 4-5 min for drying. The filter papers were moved into 0.5 ml centrifuge tubes, and 500 μl of lipid-soluble scintillation solution was added. The tubes were allowed to stand still for over 30 min in dark, and the intensities of radioactivity were measured by a counter.

KM mice [2] = experiment: Apomorphine induced clambering assay of mice; format: in vivo; settings: for Scoring (value), apomorphine induced clambering: x ± s, n = 10
Protocol: Apomorphine Induced Clambering Assay of Mice
Healthy KM mice (male, with body weight of 18-22 g) were provided by Qinglongshan Animal Cultivation Center, Nanjing.
Apomorphine provided by Sigma Company was dissolved in 0.9% NaCl (containing 0.1% vitamin C) before use, and was freshly formulated before use.
Vitamin C, F20061113, was provided by Sinopharm Chemical Reagent Co. Ltd.
Sodium chloride injection, H32026305, was provided by Xuzhou No. 5 Pharmaceutical Factory Co. Ltd.
Instruments: self-made clambering cage, chronograph.
Procedures: apomorphine induced clambering assay of mice
After 5 min of adaptation, the behaviors of the mice at 10-11, 20-21, and 30-31 min after the injection of apomorphine were observed and scored. Scoring criteria: 4 paws on the floor was scored as 0; 2 forepaws on the cage was scored as 1; and 4 paws on the cage was scored as 2.

in vivo = settings: both sexes, mouse, in vivo; po, mice, single intragastric administration; read-out: LD50
Protocol: Limit Test of Sequential Assay
KM mice (half male and half female) were randomly divided into several groups (with 2-5 mice in each group), which were respectively the 2000 mg/kg groups for each compound, and the solvent group. 0.2 ml/10 g were administered intragastrically. The death of the animals in 3 days were observed. (In the case 3 or more animals survived in 3 days without notable abnormity in their life states, the observation was continued until the assay was completed in 7 days. In the case 3 or more animals died in 3 days, the median lethal dose method was used to determine the LD50).
Pre-Assay for the Median Lethal Dose Method
0.2 ml/10 g were administered intragastrically, and the death of the animals in 1-3 days were observed.

5HT1A receptor, sequence (P19327 whole entry): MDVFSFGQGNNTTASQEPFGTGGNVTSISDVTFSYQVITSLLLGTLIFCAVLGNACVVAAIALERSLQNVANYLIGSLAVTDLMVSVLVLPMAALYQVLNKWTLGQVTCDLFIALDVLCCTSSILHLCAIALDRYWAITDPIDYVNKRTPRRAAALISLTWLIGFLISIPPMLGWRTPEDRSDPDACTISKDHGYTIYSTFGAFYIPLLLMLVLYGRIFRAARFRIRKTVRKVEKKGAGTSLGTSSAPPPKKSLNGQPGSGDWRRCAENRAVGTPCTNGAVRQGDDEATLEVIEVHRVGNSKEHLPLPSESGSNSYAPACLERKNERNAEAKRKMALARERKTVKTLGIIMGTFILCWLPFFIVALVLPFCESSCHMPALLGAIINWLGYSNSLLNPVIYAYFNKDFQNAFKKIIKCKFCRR
5HT2A receptor, sequence (P14842 whole entry): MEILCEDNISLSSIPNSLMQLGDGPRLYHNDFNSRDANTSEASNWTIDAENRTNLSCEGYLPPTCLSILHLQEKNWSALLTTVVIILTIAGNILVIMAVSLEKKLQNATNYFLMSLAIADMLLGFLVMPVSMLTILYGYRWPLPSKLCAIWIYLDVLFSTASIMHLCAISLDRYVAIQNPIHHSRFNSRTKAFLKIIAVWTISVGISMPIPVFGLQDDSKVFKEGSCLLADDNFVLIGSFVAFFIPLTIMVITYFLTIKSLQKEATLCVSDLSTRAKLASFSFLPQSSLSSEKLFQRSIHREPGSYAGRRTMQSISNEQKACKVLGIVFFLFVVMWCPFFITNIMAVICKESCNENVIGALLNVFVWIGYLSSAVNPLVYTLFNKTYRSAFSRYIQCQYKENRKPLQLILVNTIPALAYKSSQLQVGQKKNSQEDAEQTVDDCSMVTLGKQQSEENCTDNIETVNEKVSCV

SMILES: COc1ccccc1N1CCN(CCCCOc2ccc3c4c(c(=O)oc3c2)CCC4)CC1 [Compound 7, 7-{4-[4-(2-methoxyphenyl)piperazin-1-yl]-butoxy}-2,3-dihydro-1H-cyclopenteno[c]benzopyran-4-one]
- IC50 (5HT2A receptor): 0.78 nM
- affinity for 5-HT2A receptor (in words) (5HT2A receptor; in vitro assay): relatively stronger affinities
- IC50 (5HT1A receptor): 0.08 nM
- affinity for 5-HT1A receptor (in words) (5HT1A receptor; in vitro assay): relatively stronger affinities
- ED50 (mice of Kunming breed; Mus musculus, po, mice): 2.05 mg/kg
- effect on MK-801 induced high activity (in words) (mice of Kunming breed; compared to the model group): significantly improve
- IC50 (D2 receptor): 2.1 nM
- affinity for D2 receptor (in words) (D2 receptor; in vitro assay): relatively stronger affinities
- ED50 (Catalepsy assay): 261 mg/kg
- EPS at effective dosage (in words) (KM mice [1]): did not cause EPS at effective dosage
- IC50 (5HT2C receptor): 1300 nM
- affinity for 5HT2C (in words) (5HT2C receptor; in vitro assay): lower affinity
- IC50 (D3 receptor): 7.4 nM
- affinity for D3 receptor (in words) (D3 receptor; in vitro assay): relatively stronger affinities
- ED50 (KM mice [2]; Mus musculus, po, mice, read-out: apomorphine induced clambering ED50): 0.13 mg/kg
- effect on apomorphine induced clambering symptoms (in words) (KM mice [2]; compared to the model group): effectively improve
- Scoring (value), apomorphine induced clambering (KM mice [2]; dosage 3 mg/kg): 3.50 ± 1.96
- Scoring (value), apomorphine induced clambering (KM mice [2]; dosage 10 mg/kg): 2.60 ± 1.58
- Scoring (value), apomorphine induced clambering (KM mice [2]; dosage 30 mg/kg): 1.80 ± 1.40
- Scoring (value), apomorphine induced clambering (KM mice [2]; dosage 100 mg/kg): 0.00 ± 0.00
- LD50 (in vivo): > 2000 mg/kg
